# Calls of active or inactive are those of the source. The calls are words filed in the database; no cut-off is given here.
# Columns and labels:
# MDA-MB-231 [1] = test: Induction of apoptosis in human MDA-MB-231 cells assessed as necrosis cells level at 40 uM after 48 hrs by Annexin V-FITC and propidium iodide staining method (reference value: 3.3%); format: functional
# MDA-MB-231 [2] = test: Induction of apoptosis in human MDA-MB-231 cells assessed as early apoptosis cells level at 40 uM after 48 hrs by Annexin V-FITC and propidium iodide staining method (reference value: 0.5 %); format: functional
# T47D [3] = test: Reduction in ATP production in human T47D cells at 40 uM after 48 hrs; format: functional, cell-based
# T47D [4] = test: Antiproliferative activity against human T47D cells assessed as reduction in confluence at 40 uM after 48 hrs by crystal violet staining method; format: functional, cell-based
# MDA-MB-231 [5] = test: Induction of cell cycle arrest in human MDA-MB-231 cells assessed as increase in cell accumulation at […] phase at 40 uM after 48 hrs by flow cytometry; format: functional
# MDA-MB-231 [6] = test: Induction of apoptosis in human MDA-MB-231 cells assessed as increase in caspase 3 activity at 40 uM after 48 hrs; format: functional, cell-based
# MDA-MB-468 [7] = test: Antiproliferative activity against human MDA-MB-468 cells assessed as reduction in confluence at 40 uM after 48 hrs by crystal violet staining method; format: functional, cell-based
# MDA-MB-231 [8] = test: Induction of apoptosis in human MDA-MB-231 cells at 40 uM after 48 hrs by Annexin V-FITC and propidium iodide staining method; format: functional
# [9] = target: c-Jun N-terminal kinase, JNK (Homo sapiens) (UniProt P45983+P53779+P45984); test: Induction of JNK phosphorylation in human MDA-MB-231 cells at 40 uM after 48 hrs; format: cell-based
# MDA-MB-231 [10] = test: Antiproliferative activity against human MDA-MB-231 cells assessed as reduction in confluence at 40 uM after 48 hrs by crystal violet staining method; format: functional, cell-based
# MDA-MB-231 [11] = test: Antiproliferative activity against human MDA-MB-231 cells assessed as reduction in confluence at >40 uM after 120 hrs by crystal violet staining method; format: functional, cell-based
# MDA-MB-231 [12] = test: Induction of cell cycle arrest in human MDA-MB-231 cells assessed as reduction in cell accumulation at S phase at 40 uM after 48 hrs by flow cytometry; format: functional; conditions: MDA-MB-231, 48 h
# MDA-MB-231 [13] = test: Reduction in cyclin D1 immunoreactive protein expression in human MDA-MB-231 cells assessed as cyclin D1 level at 40 uM after 48 hrs; format: functional
# MDA-MB-231 [14] = test: Induction of apoptosis in human MDA-MB-231 cells assessed as viable cells level at 40 uM after 48 hrs by Annexin V-FITC and propidium iodide staining method (reference value: 92.6%); format: functional
# MDA-MB-231 [15] = test: Induction of apoptosis in human MDA-MB-231 cells assessed as late apoptosis cells level at 40 uM after 48 hrs by Annexin V-FITC and propidium iodide staining method (reference value: 3.7%); format: functional
# MDA-MB-468 [16] = test: Reduction in ATP production in human MDA-MB-468 cells at 40 uM after 48 hrs; format: functional, cell-based
# MDA-MB-231 [17] = test: Induction of cell cycle arrest in human MDA-MB-231 cells assessed as reduction in cell accumulation at G2/M phase at 40 uM after 48 hrs by flow cytometry; format: functional; conditions: MDA-MB-231, 48 h
# MDA-MB-231 [18] = test: Reduction in ATP production in human MDA-MB-231 cells assessed as ATP level at 40 uM after 48 hrs relative to untreated control; format: functional; parameters: scale not given: the % may be the effect or the level left
# MDA-MB-231 [19] = test: Reduction in ATP production in human MDA-MB-231 cells at 40 uM after 120 hrs relative to untreated control; format: functional, cell-based
# MDA-MB-231 [20] = test: Reduction in cell viability in human MDA-MB-231 cells at 1 to 40 uM after 48 to 120 hrs in presence of JNK gene silencing RNA; format: functional, cell-based
# MDA-MB-231 [21] = test: Reduction in ATP production in human MDA-MB-231 cells assessed as ATP level at 40 uM after 120 hrs relative to untreated control; format: functional; parameters: scale not given: the % may be the effect or the level left
# MDA-MB-231 [22] = test: Antiproliferative activity against human MDA-MB-231 cells assessed as reduction in confluence at 10 uM measured over 120 hrs by crystal violet staining method; format: functional, cell-based
# MDA-MB-231 [23] = test: Induction of apoptosis in human MDA-MB-231 cells assessed as increase in caspase 3 activity at 40 uM after 48 hrs in presence of JNK gene silencing RNA; format: functional, cell-based
# T47D [24] = test: Antiproliferative activity against human T47D cells assessed as reduction in confluence at 10 uM after 48 hrs by crystal violet staining method; format: functional, cell-based
# MDA-MB-231 [25] = test: Reduction in ATP production in human MDA-MB-231 cells at 10 uM after 48 to 120 hrs in presence of 10 uM AUDA; format: functional, cell-based
# MDA-MB-231 [26] = test: Antiproliferative activity against human MDA-MB-231 cells assessed as reduction in confluence at 10 uM after 48 hrs by crystal violet staining method; format: functional, cell-based
# MDA-MB-231 [27] = test: Induction of apoptosis in human MDA-MB-231 cells assessed as increase in caspase 3 activity at 40 uM after 48 hrs in presence of JNK inhibitor […]; format: functional, cell-based
# MDA-MB-468 [28] = test: Reduction in ATP production in human MDA-MB-468 cells at 1 to 40 uM after 48 to 120 hrs; format: functional, cell-based
# MDA-MB-468 [29] = test: Antiproliferative activity against human MDA-MB-468 cells assessed as reduction in confluence at 10 uM after 48 hrs by crystal violet staining method; format: functional, cell-based
# MDA-MB-231 [30] = test: Reduction in cell viability in human MDA-MB-231 cells at 1 to 40 uM after 48 to 120 hrs in presence of JNK inhibitor […]; format: functional, cell-based
# MDA-MB-231 [31] = test: Reduction in ATP production in human MDA-MB-231 cells at 20 uM after 48 to 120 hrs in presence of 10 uM AUDA; format: functional, cell-based
# T47D [32] = test: Reduction in ATP production in human T47D cells at 1 to 40 uM after 48 to 120 hrs; format: functional, cell-based
# MDA-MB-231 [33] = test: Increase in ATP production in human MDA-MB-231 cells at 40 uM after 48 to 120 hrs; format: functional, cell-based
# MDA-MB-231 [34] = test: Reduction in cell viability in human MDA-MB-231 cells at 1 to 40 uM after 48 to 120 hrs; format: functional, cell-based
structure (smiles),measurement,setting,value
CCNC(=O)NCCCCCCCCCCCCCCCC(=O)O,Activity,MDA-MB-231 [1],7.3%
same,Activity,MDA-MB-231 [2],1.6%
same,Activity,T47D [3],inactive
same,inhibition,T47D [4],inactive
same,Activity,MDA-MB-231 [5],6%
same,Activity,MDA-MB-231 [6],Active
same,inhibition,MDA-MB-468 [7],inactive
same,Activity,MDA-MB-231 [8],inactive
same,Activity,[9],inactive
same,inhibition,MDA-MB-231 [10],inactive
same,inhibition,MDA-MB-231 [11],Active
same,inhibition at 40 µM,MDA-MB-231 [12],21%
same,Activity,MDA-MB-231 [13],inactive
same,Activity,MDA-MB-231 [14],82.6%
same,Activity,MDA-MB-231 [15],8.4%
same,Activity,MDA-MB-468 [16],inactive
same,inhibition at 40 µM,MDA-MB-231 [17],9%
same,Activity,MDA-MB-231 [18],72%
CCNC(=O)NCCCCCCCCCCCCCCCCC(=O)O,Activity,T47D [3],inactive
same,inhibition,T47D [4],inactive
same,Activity,MDA-MB-231 [5],6%
same,Activity,MDA-MB-231 [6],Active
same,inhibition,MDA-MB-468 [7],inactive
same,Activity,MDA-MB-231 [8],inactive
same,Activity,[9],inactive
same,inhibition,MDA-MB-231 [10],inactive
same,inhibition,MDA-MB-231 [11],Active
same,inhibition at 40 µM,MDA-MB-231 [12],21%
same,Activity,MDA-MB-231 [13],inactive
same,Activity,MDA-MB-468 [16],inactive
same,inhibition at 40 µM,MDA-MB-231 [17],9%
same,Activity,MDA-MB-231 [18],72%
CCNC(=O)NCCCCCCCCCCCCCCCCCC(=O)O,Activity,T47D [3],inactive
same,inhibition,T47D [4],inactive
same,Activity,MDA-MB-231 [5],6%
same,Activity,MDA-MB-231 [6],Active
same,inhibition,MDA-MB-468 [7],inactive
same,Activity,MDA-MB-231 [8],inactive
same,Activity,[9],inactive
same,inhibition,MDA-MB-231 [10],inactive
same,inhibition,MDA-MB-231 [11],Active
same,inhibition at 40 µM,MDA-MB-231 [12],21%
same,Activity,MDA-MB-231 [13],inactive
same,Activity,MDA-MB-468 [16],inactive
same,inhibition at 40 µM,MDA-MB-231 [17],9%
same,Activity,MDA-MB-231 [18],72%
CC(C)(C)NC(=O)NCCCCCCCCCCCCCCCC(=O)O,Activity,MDA-MB-231 [6],Active
same,Activity,MDA-MB-231 [18],inactive
CCCC(=O)NCCCCCCCCCCCCCCCC(=O)O,Activity,MDA-MB-231 [6],inactive
same,Activity,MDA-MB-231 [19],inactive
CCCCNC(=O)NCCCCCCCCCCCCCCCC(=O)O,Activity,MDA-MB-231 [6],Active
same,Activity,MDA-MB-231 [18],inactive
CCCNC(=O)NCCCCCCCCCCCCCCCC(=O)O,Activity,MDA-MB-231 [6],inactive
same,Activity,MDA-MB-231 [18],inactive
CCNC(=O)OCCCCCCCCCCCCCCCC(=O)O,Activity,MDA-MB-231 [6],Active
same,Activity,MDA-MB-231 [19],inactive
CC[C@@H]1O[C@@H]1CCCCCCCCCCCCCCCC(=O)O (relative stereo),Activity,MDA-MB-231 [1],29.4%
same,Activity,MDA-MB-231 [20],inactive
same,Activity,MDA-MB-231 [21],3.2%
same,Activity,MDA-MB-231 [2],4.1%
same,inhibition,MDA-MB-231 [22],Active
same,Activity,MDA-MB-231 [23],inactive
same,inhibition,T47D [24],inactive
same,Activity,MDA-MB-231 [25],Active
same,Activity,MDA-MB-231 [5],22%
same,Activity,MDA-MB-231 [6],Active
same,inhibition,MDA-MB-231 [26],Active
same,fold change (FC),MDA-MB-231 [8],5
same,Activity,[9],Active
same,Activity,MDA-MB-231 [27],inactive
same,Activity,MDA-MB-468 [28],Active
same,inhibition,MDA-MB-468 [29],Active
same,inhibition at 40 µM,MDA-MB-231 [12],49%
same,Activity,MDA-MB-231 [13],23%
same,Activity,MDA-MB-231 [30],inactive
same,Activity,MDA-MB-231 [14],27.3%
same,Activity,MDA-MB-231 [15],39.2%
same,Activity,MDA-MB-231 [31],inactive
same,Activity,T47D [32],Active
same,inhibition at 40 µM,MDA-MB-231 [17],38%
same,Activity,MDA-MB-231 [18],45%
CC[C@H]1O[C@H]1CCCCCCCCCCCCCCCCC(=O)O (relative stereo),inhibition,MDA-MB-231 [22],Active
same,inhibition,T47D [24],inactive
same,Activity,MDA-MB-231 [5],12%
same,Activity,MDA-MB-231 [6],Active
same,inhibition,MDA-MB-231 [26],Active
same,fold change (FC),MDA-MB-231 [8],5
same,Activity,[9],Active
same,Activity,MDA-MB-468 [28],inactive
same,inhibition,MDA-MB-468 [29],Active
same,inhibition at 40 µM,MDA-MB-231 [12],33%
same,Activity,MDA-MB-231 [13],24%
same,Activity,T47D [32],inactive
same,inhibition at 40 µM,MDA-MB-231 [17],30%
CC[C@@H]1O[C@@H]1CCCCCCCCCCCCCCCCCC(=O)O (relative stereo),inhibition,MDA-MB-231 [22],Active
same,inhibition,T47D [24],inactive
same,Activity,MDA-MB-231 [5],15%
same,Activity,MDA-MB-231 [6],inactive
same,inhibition,MDA-MB-231 [26],Active
same,Activity,MDA-MB-231 [8],inactive
same,Activity,[9],Active
same,Activity,MDA-MB-468 [28],inactive
same,inhibition,MDA-MB-468 [29],Active
same,inhibition at 40 µM,MDA-MB-231 [12],42%
same,Activity,MDA-MB-231 [13],47%
same,Activity,T47D [32],inactive
same,inhibition at 40 µM,MDA-MB-231 [17],19%
CCCCCCCC[C@@H]1O[C@@H]1CCCCCCCCCC(=O)O (relative stereo),Activity,MDA-MB-231 [33],Active
same,Activity,MDA-MB-231 [6],inactive
same,Activity,MDA-MB-231 [34],inactive
CCCCC[C@@H]1O[C@@H]1CCCCCCCCCCCCC(=O)O (relative stereo),Activity,MDA-MB-231 [6],inactive
same,Activity,MDA-MB-231 [34],inactive

# Reference: ChEMBL document CHEMBL3352675, “Synthetic ω-3 epoxyfatty acids as antiproliferative and pro-apoptotic agents in human breast cancer cells” (2014)
